Experimental data from ChEMBL document CHEMBL1201862, “PubChem BioAssay data set” (2004).
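Results reflect a 48-hour exposure of cells in 96-well plates to compound at five concentrations. GI50 = concentration required for 50% inhibition of growth.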 Calls of active or inactive are those of the source. Rule as the data show it: active = GI50 up to about 1.1 µM and inactive = higher.

Experiments:
Assay in all cases: NCI tumour cell line growth inhibition, 48 h
CCRF-CEM = system: CCRF-CEM
NCI-H23 = system: NCI-H23
T47D = system: T47D
HT-29 = system: HT-29
EKVX = system: EKVX
SK-MEL-28 = system: SK-MEL-28
SN12C = system: SN12C
SF-268 = system: SF-268
SNB-75 = system: SNB-75
OVCAR-8 = system: OVCAR-8
786-0 = system: 786-0
TK-10 = system: TK-10
MDA-MB-231 = system: MDA-MB-231
OVCAR-4 = system: OVCAR-4
PC-3 = system: PC-3
HL-60 = system: HL-60
IGROV-1 = system: IGROV-1
OVCAR-3 = system: OVCAR-3
CAKI-1 = system: CAKI-1
OVCAR-5 = system: OVCAR-5
NCI-H226 = system: NCI-H226
MOLT-4 = system: MOLT-4
BT-549 = system: BT-549
ACHN = system: ACHN
Hs-578T = system: Hs-578T
SF-295 = system: SF-295
SW-620 = system: SW-620
SK-MEL-5 = system: SK-MEL-5
SK-MEL-2 = system: SK-MEL-2
DU-145 = system: DU-145
MDA-MB-435 = system: MDA-MB-435
Malme-3M = system: Malme-3M
K562 = system: K562
HCT-116 = system: HCT-116
UACC-257 = system: UACC-257
LOX IMVI = system: LOX IMVI
MCF7 = system: MCF7
SK-OV-3 = system: SK-OV-3
UO-31 = system: UO-31
HCC 2998 = system: HCC 2998
NCI-H460 = system: NCI-H460
UACC-62 = system: UACC-62
COLO 205 = system: COLO 205
SNB-19 = system: SNB-19
A549 = system: A549
RXF 393 = system: RXF 393
MDA-N = system: MDA-N
KM12 = system: KM12
NCI/ADR-RES = system: NCI/ADR-RES
SF-539 = system: SF-539
M14 = system: M14
U-251 = system: U-251
A498 = system: A498
HCT-15 = system: HCT-15
RPMI-8226 = system: RPMI-8226
HOP-92 = system: HOP-92
NCI-H522 = system: NCI-H522
HOP-62 = system: HOP-62
SR = system: SR

For `CC(C)C(NC(=O)Oc1ccccc1)C(=O)NC1c2c(Br)sc(Br)c2C(=O)C1O` (configuration not stated), the GI50 (CCRF-CEM) was 7.62 µM (inactive), the GI50 (NCI-H23) was 4.8 µM (inactive) and the GI50 (T47D) was 6.34 µM (inactive). For the same compound, the GI50 (HT-29) was 4.2 µM (inactive), the GI50 (EKVX) was 6.4 µM (inactive) and the GI50 (SK-MEL-28) was 4.93 µM (inactive). For the same compound, the GI50 (SN12C) was 5.62 µM (inactive), the GI50 (SF-268) was 6.24 µM (inactive) and the GI50 (SNB-75) was > 25 µM (inactive). The GI50 (OVCAR-8) was 4.6 µM (inactive), the GI50 (786-0) was 8.79 µM (inactive) and the GI50 (TK-10) was 8.49 µM (inactive). The GI50 (MDA-MB-231) was 5.11 µM (inactive), the GI50 (OVCAR-4) was 2.94 µM (inactive) and the GI50 (PC-3) was 8.53 µM (inactive). The GI50 (HL-60) was 9.12 µM (inactive), the GI50 (IGROV-1) was 4.47 µM (inactive) and the GI50 (OVCAR-3) was 4.14 µM (inactive). The GI50 (CAKI-1) was 6.81 µM (inactive), the GI50 (OVCAR-5) was 4.91 µM (inactive) and the GI50 (NCI-H226) was > 25 µM (inactive). For the same compound, the GI50 (MOLT-4) was 11.9 µM (inactive), the GI50 (BT-549) was 3.67 µM (inactive) and the GI50 (ACHN) was 5.56 µM (inactive). The GI50 (Hs-578T) was 8.95 µM (inactive), the GI50 (SF-295) was > 25 µM (inactive) and the GI50 (SW-620) was 6.1 µM (inactive). For the same compound, the GI50 (SK-MEL-5) was 4.53 µM (inactive), the GI50 (SK-MEL-2) was 7.33 µM (inactive) and the GI50 (DU-145) was 9.4 µM (inactive). For the same compound, the GI50 (MDA-MB-435) was 6.68 µM (inactive), the GI50 (Malme-3M) was 6.38 µM (inactive) and the GI50 (K562) was 7.8 µM (inactive). For the same compound, the GI50 (HCT-116) was 3.97 µM (inactive), the GI50 (UACC-257) was 4.72 µM (inactive) and the GI50 (LOX IMVI) was 4.98 µM (inactive). The GI50 (MCF7) was > 25 µM (inactive), the GI50 (SK-OV-3) was > 25 µM (inactive) and the GI50 (UO-31) was 9.64 µM (inactive). The GI50 (HCC 2998) was 4.2 µM (inactive), the GI50 (NCI-H460) was 5.02 µM (inactive) and the GI50 (UACC-62) was 4.02 µM (inactive). For the same compound, the GI50 (COLO 205) was 7.29 µM (inactive), the GI50 (SNB-19) was 4.93 µM (inactive) and the GI50 (A549) was > 25 µM (inactive). For the same compound, the GI50 (RXF 393) was 3.75 µM (inactive), the GI50 (MDA-N) was 11.6 µM (inactive) and the GI50 (KM12) was > 25 µM (inactive). For the same compound, the GI50 (NCI/ADR-RES) was 5.87 µM (inactive), the GI50 (SF-539) was 14.2 µM (inactive) and the GI50 (M14) was 4.58 µM (inactive). For the same compound, the GI50 (U-251) was 5.31 µM (inactive), the GI50 (A498) was > 25 µM (inactive) and the GI50 (HCT-15) was 4.25 µM.

With `O=[N+]([O-])c1cccc2nnccc12` the GI50 (NCI-H23) was 23.3 µM (inactive), the GI50 (T47D) was 36.8 µM (inactive) and the GI50 (HT-29) was 20.3 µM (inactive). For the same compound, the GI50 (EKVX) was 36.5 µM (inactive), the GI50 (SN12C) was 26.1 µM (inactive) and the GI50 (SF-268) was 25.2 µM (inactive). The GI50 (SNB-75) was 48.3 µM (inactive), the GI50 (OVCAR-8) was 31.9 µM (inactive) and the GI50 (786-0) was 12.6 µM (inactive). The GI50 (TK-10) was 46.3 µM (inactive), the GI50 (MDA-MB-231) was > 10 µM (inactive) and the GI50 (PC-3) was 31.8 µM (inactive). For the same compound, the GI50 (HL-60) was 2.5 µM (inactive), the GI50 (IGROV-1) was 24.7 µM (inactive) and the GI50 (CAKI-1) was 34.9 µM (inactive). The GI50 (OVCAR-5) was 63.5 µM (inactive), the GI50 (NCI-H226) was 16 µM (inactive) and the GI50 (MOLT-4) was 28.4 µM (inactive). The GI50 (BT-549) was 29.6 µM (inactive), the GI50 (ACHN) was 11.7 µM (inactive) and the GI50 (Hs-578T) was 51.5 µM (inactive). For the same compound, the GI50 (SF-295) was 42.7 µM (inactive), the GI50 (SW-620) was 42 µM (inactive) and the GI50 (SK-MEL-5) was 14.1 µM (inactive). The GI50 (SK-MEL-2) was 24.7 µM (inactive), the GI50 (DU-145) was 38.7 µM (inactive) and the GI50 (MDA-MB-435) was 15.7 µM (inactive). For the same compound, the GI50 (RPMI-8226) was 22 µM (inactive), the GI50 (Malme-3M) was 11.9 µM (inactive) and the GI50 (K562) was 23.9 µM (inactive). For the same compound, the GI50 (HCT-116) was 12.1 µM (inactive), the GI50 (UACC-257) was 16.5 µM (inactive) and the GI50 (MCF7) was 21.1 µM (inactive). For the same compound, the GI50 (SK-OV-3) was 93.3 µM (inactive), the GI50 (UO-31) was 28.6 µM (inactive) and the GI50 (NCI-H460) was 19.1 µM (inactive). For the same compound, the GI50 (UACC-62) was 13.6 µM (inactive), the GI50 (COLO 205) was 13.3 µM (inactive) and the GI50 (HOP-92) was 24.2 µM (inactive). The GI50 (SNB-19) was 35.9 µM (inactive), the GI50 (A549) was 54.8 µM (inactive) and the GI50 (NCI-H522) was 3.71 µM (inactive). For the same compound, the GI50 (RXF 393) was 63.5 µM (inactive), the GI50 (MDA-N) was 17.6 µM (inactive) and the GI50 (KM12) was 23.7 µM (inactive). The GI50 (NCI/ADR-RES) was 34.1 µM (inactive), the GI50 (SF-539) was 48 µM (inactive) and the GI50 (M14) was 24.3 µM (inactive). The GI50 (U-251) was 41.6 µM (inactive) and the GI50 (HCT-15) was 12.9 µM.

With `COc1ccc(P2(=S)Oc3ccc(C(c4ccccc4)(c4ccccc4)c4ccccc4)cc3O2)cc1` (configuration not stated) the GI50 (CCRF-CEM) was 24.9 µM (inactive), the GI50 (NCI-H23) was 16.9 µM (inactive) and the GI50 (T47D) was 13.7 µM (inactive). The GI50 (HT-29) was 18.8 µM (inactive), the GI50 (EKVX) was 20.2 µM (inactive) and the GI50 (SK-MEL-28) was 19.7 µM (inactive). For the same compound, the GI50 (SN12C) was 17.9 µM (inactive), the GI50 (SF-268) was 17.2 µM (inactive) and the GI50 (SNB-75) was 13.7 µM (inactive). For the same compound, the GI50 (OVCAR-8) was 16 µM (inactive), the GI50 (786-0) was 18 µM (inactive) and the GI50 (TK-10) was 19.1 µM (inactive). For the same compound, the GI50 (MDA-MB-231) was 21.2 µM (inactive), the GI50 (OVCAR-4) was 13.2 µM (inactive) and the GI50 (PC-3) was 13.9 µM (inactive). The GI50 (HL-60) was 15.5 µM (inactive), the GI50 (IGROV-1) was 17.5 µM (inactive) and the GI50 (OVCAR-3) was 16.9 µM (inactive). The GI50 (CAKI-1) was 19.1 µM (inactive), the GI50 (OVCAR-5) was 19.5 µM (inactive) and the GI50 (NCI-H226) was 16.6 µM (inactive). The GI50 (MOLT-4) was 19.6 µM (inactive), the GI50 (BT-549) was 24.9 µM (inactive) and the GI50 (ACHN) was 16.7 µM (inactive). The GI50 (Hs-578T) was 21.8 µM (inactive), the GI50 (SF-295) was 18.1 µM (inactive) and the GI50 (SW-620) was 19.6 µM (inactive). The GI50 (SK-MEL-5) was 21.6 µM (inactive), the GI50 (SK-MEL-2) was 20.5 µM (inactive) and the GI50 (DU-145) was 20.5 µM (inactive). The GI50 (MDA-MB-435) was 16.4 µM (inactive), the GI50 (RPMI-8226) was 23 µM (inactive) and the GI50 (Malme-3M) was 20 µM (inactive). The GI50 (K562) was 17.8 µM (inactive), the GI50 (HOP-62) was 24.6 µM (inactive) and the GI50 (HCT-116) was 17.8 µM (inactive). For the same compound, the GI50 (UACC-257) was 19.2 µM (inactive), the GI50 (LOX IMVI) was 14.5 µM (inactive) and the GI50 (MCF7) was 16.8 µM (inactive). For the same compound, the GI50 (SK-OV-3) was 23 µM (inactive), the GI50 (UO-31) was 17 µM (inactive) and the GI50 (HCC 2998) was 16.3 µM (inactive). For the same compound, the GI50 (NCI-H460) was 18.6 µM (inactive), the GI50 (SR) was 22.3 µM (inactive) and the GI50 (UACC-62) was 13.4 µM (inactive). For the same compound, the GI50 (COLO 205) was 20.2 µM (inactive), the GI50 (HOP-92) was 18.1 µM (inactive) and the GI50 (SNB-19) was 16 µM (inactive). The GI50 (A549) was 16.6 µM (inactive), the GI50 (NCI-H522) was 16.7 µM (inactive) and the GI50 (MDA-N) was 18.5 µM (inactive). The GI50 (KM12) was 15 µM (inactive), the GI50 (NCI/ADR-RES) was 20.6 µM (inactive) and the GI50 (SF-539) was 19.9 µM (inactive). The GI50 (M14) was 14.1 µM (inactive), the GI50 (U-251) was 18 µM (inactive) and the GI50 (A498) was 17.7 µM (inactive). The GI50 (HCT-15) was 19.3 µM.
